Laboratory results reported in patent US9587239B2, “Methods of identifying and treating glioblastoma” (THE TRANSLATIONAL GENOMICS RESEARCH INSTITUTE, priority 2008, dated 2017).
pIC50: −log10 of the molar value.

Columns and labels:
SF767 cells = assay: Alamar Blue cell viability assay, SF767; type: cell-based; conditions: Homo sapiens, 48 hours
Method: (§1) The Alamar Blue assay was used to assess viability as described previously (See Reference 29, incorporated by reference in its entirety). Briefly, 4000 cells of each population were seeded in quadruplicate wells of 96-well plastic plates in 200 μl of culture medium supplemented with 10% fetal bovine serum. Cells were treated with various conditions and the assay was developed 48 hours later. Alamar Blue was then added to the cells in a volume of 20 μl (10% of total volume) per well and the plates were incubated for 6 hours at 37° C. The plates were read on a fluorescence plate reader (excitation, 560 nm; emission, 600 nm). Averages of the fluorescence values were calculated and normalized to controls without Temozolomide.

T98G cells = assay: Alamar Blue cell viability assay, T98G; type: cell-based; conditions: Homo sapiens, 48 hours
Method: as §1

Cn1nnc2c(C(N)=O)ncn2c1=O [Temozolomide]
pIC50 (SF767 cells): 3.90 | pIC50 (T98G cells): 3.60
